Measured values taken from PMC11420244, “Evaluation of the effect of modafinil on the pharmacokinetics of encorafenib and binimetinib in patients with BRAF V600-mutant advanced solid tumors” (Cancer Chemotherapy and Pharmacology, 2024).
“Also recorded” adds a separate entry of the source. Like-named read-outs stand apart in the source and are kept apart here.

Assays:
[1] = test system: UGT1A1; settings: cited from earlier work
[2] = Phase 1 clinical DDI study: steady-state plasma PK (noncompartmental analysis) with and without modafinil; assay type: in vivo, Human; settings: for AUC(0-t) / half-life / Cmax: human
Protocol: Encorafenib 450 mg QD and binimetinib 45 mg BID were administered starting on Day 1. Patients then received continuous treatment of 400 mg QD modafinil on Day 15 through Day 21. Blood samples for measurement of plasma concentrations of encorafenib (and its metabolite, LHY746) and binimetinib (and its active metabolite, AR00426032), were collected at 0, 1, 2, 3, 4, 6 and 8 h post dose on Day 14 and Day 21.
Human PK plasma samples were analyzed for quantitation of all PK analytes at PPD (Middleton, Wisconsin, US) using validated, sensitive, and specific HPLC/MS/MS methods in compliance with laboratory SOPs.
PK parameters including, but not limited to, Cmax and AUClast were calculated for each participant using noncompartmental analysis (NCA) methods using the WinNonlin software package (Phoenix WinNonlin Professional, version 8.0 Pharsight Corporation, Mountain View, California) for PK analytes including encorafenib and its metabolite LHY746, and binimetinib and its metabolite AR00426032.
All patients who received at least one dose of any study drug were included in the Safety Set population. The Evaluable PK Set included all patients with sufficient concentration data to calculate at least one PK parameter for encorafenib and binimetinib on Days 14 and 21. Patients who discontinued, missed 3 or more consecutive doses of encorafenib prior to completion of the last PK sampling on Day 14, or required a dose reduction of encorafenib prior to completion of the last PK sampling on Day 14 were excluded from the Evaluable PK set. In addition, patients who missed any dose of study drugs on any of the PK days, or who vomited within 4 h after dosing on any of the PK days were excluded from Evaluable PK set.
An analysis of variance (ANOVA) was performed on the natural log (ln)-transformed Cmax and AUClast of encorafenib, LHY746, binimetinib, and AR00426032. The least squares means (LSM) geometric mean ratio (GMR) and associated 90% confidence interval (CI) for each PK parameter were calculated using the exponentiation of the difference between treatment LSM from the analyses on the ln-transformed parameters and expressed as a percentage of Day 21 relative to Day 14.

[3] = Day 21 (with modafinil) relative to Day 14 (without)
[4] = Day 21, with modafinil 400 mg QD, steady state, plasma, patients

AUClast GMR (geometric mean ratio) [2, 3]: 0.957 | Cmax GMR (geometric mean ratio) [2, 3]: 1 | Cmax GMR (geometric mean ratio) ([2]; Day 21 (with modafinil) relative to Day 14 (without), listed as binimetinib): 1.00 | Cmax, Median (range) [2, 4]: 686 (424–923) ng/mL | Tmax, Median (range) [2, 4]: 1.00 (0.95–2.10) hr | Effect of steady-state modafinil on exposure/PK (in words) ([2]; Day 21 vs Day 14, modafinil 400 mg QD): similar; also recorded: no change | Time at which mean plasma concentrations typically reach peak levels, postdose ([2]; Days 14 and 21, steady state): 1 h | AUC(0-t) ([2]; plasma, oral, 400 mg, Day 21, with modafinil 400 mg QD, steady state, plasma, patients, read-out: AUClast, GM (CV%)): 2290 ng·h/mL | AUC(0-t) ([2]; plasma, oral, 400 mg, Day 21, with modafinil 400 mg QD, steady state, plasma, patients, read-out: AUClast, Median (range)): 2430 ng·h/mL | half-life ([2]; plasma, oral, 400 mg, Day 21, with modafinil 400 mg QD, steady state, plasma, patients, read-out: T1/2, GM (CV%) (converted)): 4.55 h | half-life ([2]; plasma, oral, 400 mg, Day 21, with modafinil 400 mg QD, steady state, plasma, patients, read-out: T1/2, Median (range) (converted)): 4.47 h | AUC(0-t) ([2]; plasma, oral, Day 14, without modafinil, steady state, plasma, patients, read-out: AUClast, GM (CV%)): 2400 ng·h/mL | AUC(0-t) ([2]; plasma, oral, Day 14, without modafinil, steady state, plasma, patients, read-out: AUClast, Median (range)): 2670 ng·h/mL | Cmax ([2]; plasma, oral, Day 14, without modafinil, steady state, plasma, patients, read-out: Cmax, Median (range)): 609 ng/mL | half-life ([2]; plasma, oral, Day 14, without modafinil, steady state, plasma, patients, read-out: T1/2, GM (CV%) (converted)): 4.62 h | half-life ([2]; plasma, oral, Day 14, without modafinil, steady state, plasma, patients, read-out: T1/2, Median (range) (converted)): 5.15 h | Cmax ([2]; plasma, po, Day 14, without modafinil, steady state, encorafenib 450 mg QD + binimetinib 45 mg BID oral, plasma, patients, read-out: Cmax, GM (CV%)): 660 ng/mL | Cmax ([2]; plasma, po, Day 21, with modafinil 400 mg QD Days 15-21, steady state, encorafenib 450 mg QD + binimetinib 45 mg BID oral, plasma, patients, read-out: Cmax, GM (CV%)): 663 ng/mL
Structure (SMILES): Cn1cnc2c(F)c(Nc3ccc(Br)cc3F)c(C(=O)NOCCO)cc21 [Binimetinib, binimetinib]
Contribution of UGT1A1-mediated metabolism to metabolism [1]: up to 61%
